Species: Rattus norvegicus
Test: Open TG-GATES - Regimen: Daily Repeat
Assay type: toxicity, organism-based, Sprague-Dawley
Set-up: regimen Daily Repeat, gender Male, age 6 weeks
Conditions: in vivo, po, 300 mg/kg, route gavage, dose level High; for APTT / Bas / Eos / Fbg / Hb / Ht / Lym / MCH / MCHC / MCV / Mono / Neu / PT / Plat / RBC / Ret / WBC: tissue Blood; for ALP / ALT / AST / BUN / CRE / DBIL / GLC / IP / K / Na / PL / RALB / TBIL / TC / TG / TP / gamma-GTP: tissue Plasma

Work on `NS(=O)(=O)c1cc(C(=O)O)c(NCc2ccco2)cc1Cl` [FUROSEMIDE] yielded a TERMINAL_BW (72 h, time 3 day) of 189.1 g, an APTT (72 h, time 3 day) of 20.9 s and a Bas (72 h, time 3 day) of 0.4%. It also gave an Eos (72 h, time 3 day) of 0.8%, a Fbg (72 h, time 3 day) of 315.2 mg/dL and a Hb (72 h, time 3 day) of 16.5 g/dL. It also gave a Ht (72 h, time 3 day) of 47%, a Lym (72 h, time 3 day) of 80% and an MCH (72 h, time 3 day) of 20.8 pg. For the same molecule, the MCHC (72 h, time 3 day) was 35.1%, the MCV (72 h, time 3 day) was 59.3 fL and the Mono (72 h, time 3 day) was 2.6%. The Neu (72 h, time 3 day) was 15.8%, the PT (72 h, time 3 day) was 15.6 s and the Plat (72 h, time 3 day) was 124.2 x10_4/uL. The RBC (72 h, time 3 day) was 794 x10_4/ul, the Ret (72 h, time 3 day) was 2% and the WBC (72 h, time 3 day) was 116.4 x10_2/uL. For the same molecule, the ALP (72 h, time 3 day) was 1596.8 IU/L, the ALT (72 h, time 3 day) was 46.2 IU/L and the AST (72 h, time 3 day) was 67.4 IU/L. For the same molecule, the BUN (72 h, time 3 day) was 41.8 mg/dL, the CRE (72 h, time 3 day) was 0.2 mg/dL and the DBIL (72 h, time 3 day) was 0.02 mg/dL. The GLC (72 h, time 3 day) was 164.6 mg/dL, the IP (72 h, time 3 day) was 5.7 mg/dL and the K (72 h, time 3 day) was 3 meq/L. The Na (72 h, time 3 day) was 136.4 meq/L, the PL (72 h, time 3 day) was 169.6 mg/dL and the RALB (72 h, time 3 day) was 2.9 g/dL. It also gave a TBIL (72 h, time 3 day) of 0.082 mg/dL, a TC (72 h, time 3 day) of 90.2 mg/dL and a TG (72 h, time 3 day) of 48.4 mg/dL. For the same molecule, the TP (72 h, time 3 day) was 6.2 g/dL, the gamma-GTP (72 h, time 3 day) was 1.2 IU/L and the TERMINAL_BW ([…], time 7 day) was 216.8 g. It also gave a TERMINAL_BW ([…], time 14 day) of 243.1 g, a TERMINAL_BW ([…], time 28 day) of 317.2 g and an APTT ([…], time 7 day) of 16.2 s. The Bas ([…], time 7 day) was 0.4%, the Eos ([…], time 7 day) was 1% and the Fbg ([…], time 7 day) was 291 mg/dL. It also gave a Hb ([…], time 7 day) of 15 g/dL, a Ht ([…], time 7 day) of 42.7% and a Lym ([…], time 7 day) of 81.6%. It also gave an MCH ([…], time 7 day) of 20.8 pg, an MCHC ([…], time 7 day) of 35.2% and an MCV ([…], time 7 day) of 59.3 fL. The Mono ([…], time 7 day) was 2.2%, the Neu ([…], time 7 day) was 14.4% and the PT ([…], time 7 day) was 16.2 s. For the same molecule, the Plat ([…], time 7 day) was 97.2 x10_4/uL, the RBC ([…], time 7 day) was 720.2 x10_4/ul and the Ret ([…], time 7 day) was 2.4%. It also gave a WBC ([…], time 7 day) of 121.9 x10_2/uL, an APTT ([…], time 14 day) of 17 s and a Bas ([…], time 14 day) of 0.5%. It also gave an Eos ([…], time 14 day) of 1%, a Fbg ([…], time 14 day) of 309.5 mg/dL and a Hb ([…], time 14 day) of 15.3 g/dL. For the same molecule, the Ht ([…], time 14 day) was 43.5%, the Lym ([…], time 14 day) was 80% and the MCH ([…], time 14 day) was 19.9 pg. For the same molecule, the MCHC ([…], time 14 day) was 35.2%, the MCV ([…], time 14 day) was 56.5 fL and the Mono ([…], time 14 day) was 2%. For the same molecule, the Neu ([…], time 14 day) was 15.5%, the PT ([…], time 14 day) was 15.9 s and the Plat ([…], time 14 day) was 102.8 x10_4/uL. It also gave an RBC ([…], time 14 day) of 769.5 x10_4/ul, a Ret ([…], time 14 day) of 3.6% and a WBC ([…], time 14 day) of 113 x10_2/uL. It also gave an APTT ([…], time 28 day) of 16 s, a Bas ([…], time 28 day) of 1% and an Eos ([…], time 28 day) of 1.2%. The Fbg ([…], time 28 day) was 265.8 mg/dL, the Hb ([…], time 28 day) was 15.6 g/dL and the Ht ([…], time 28 day) was 45.6%. It also gave a Lym ([…], time 28 day) of 80.8%, an MCH ([…], time 28 day) of 19.3 pg and an MCHC ([…], time 28 day) of 34.3%. The MCV ([…], time 28 day) was 56.5 fL, the Mono ([…], time 28 day) was 2% and the Neu ([…], time 28 day) was 15.2%. For the same molecule, the PT ([…], time 28 day) was 16 s, the Plat ([…], time 28 day) was 91 x10_4/uL and the RBC ([…], time 28 day) was 806.5 x10_4/ul. For the same molecule, the Ret ([…], time 28 day) was 2%, the WBC ([…], time 28 day) was 106.7 x10_2/uL and the ALP ([…], time 7 day) was 1629.6 IU/L. For the same molecule, the ALT ([…], time 7 day) was 50.2 IU/L, the AST ([…], time 7 day) was 71 IU/L and the BUN ([…], time 7 day) was 27 mg/dL. For the same molecule, the CRE ([…], time 7 day) was 0.2 mg/dL, the DBIL ([…], time 7 day) was 0.018 mg/dL and the GLC ([…], time 7 day) was 169.8 mg/dL. The IP ([…], time 7 day) was 4.9 mg/dL, the K ([…], time 7 day) was 3.5 meq/L and the Na ([…], time 7 day) was 141.8 meq/L. The PL ([…], time 7 day) was 164.8 mg/dL, the RALB ([…], time 7 day) was 2.7 g/dL and the TBIL ([…], time 7 day) was 0.062 mg/dL. It also gave a TC ([…], time 7 day) of 80.6 mg/dL, a TG ([…], time 7 day) of 67 mg/dL and a TP ([…], time 7 day) of 5.9 g/dL. It also gave a gamma-GTP ([…], time 7 day) of 0.4 IU/L, an ALP ([…], time 14 day) of 1713 IU/L and an ALT ([…], time 14 day) of 48.2 IU/L. It also gave an AST ([…], time 14 day) of 79 IU/L, a BUN ([…], time 14 day) of 28.8 mg/dL and a CRE ([…], time 14 day) of 0.2 mg/dL. For the same molecule, the DBIL ([…], time 14 day) was 0.0175 mg/dL, the GLC ([…], time 14 day) was 174 mg/dL and the IP ([…], time 14 day) was 5.5 mg/dL. For the same molecule, the K ([…], time 14 day) was 3.4 meq/L, the Na ([…], time 14 day) was 142.8 meq/L and the PL ([…], time 14 day) was 171.8 mg/dL. It also gave an RALB ([…], time 14 day) of 2.7 g/dL, a TBIL ([…], time 14 day) of 0.0575 mg/dL and a TC ([…], time 14 day) of 83 mg/dL. For the same molecule, the TG ([…], time 14 day) was 84.2 mg/dL, the TP ([…], time 14 day) was 5.9 g/dL and the gamma-GTP ([…], time 14 day) was 0.5 IU/L. For the same molecule, the ALP ([…], time 28 day) was 1444.8 IU/L, the ALT ([…], time 28 day) was 44.2 IU/L and the AST ([…], time 28 day) was 72.2 IU/L. The BUN ([…], time 28 day) was 30.8 mg/dL, the CRE ([…], time 28 day) was 0.2 mg/dL and the DBIL ([…], time 28 day) was 0.0175 mg/dL. It also gave a GLC ([…], time 28 day) of 174.8 mg/dL, an IP ([…], time 28 day) of 5.1 mg/dL and a K ([…], time 28 day) of 3.5 meq/L. The Na ([…], time 28 day) was 144.5 meq/L, the PL ([…], time 28 day) was 150.2 mg/dL and the RALB ([…], time 28 day) was 2.7 g/dL. It also gave a TBIL ([…], time 28 day) of 0.055 mg/dL, a TC ([…], time 28 day) of 69.8 mg/dL and a TG ([…], time 28 day) of 92.2 mg/dL. The TP ([…], time 28 day) was 6 g/dL and the gamma-GTP ([…], time 28 day) was 0.5 IU/L.

From ChEMBL document CHEMBL3885861, “Open TG-GATES”
